Tested on: 276233-004-R-J1-PDC complex spheroid viability
Assay: Anticancer human tumor 276233-004-R-J1-PDC patient-derived colon adenocarcinoma cell line growth inhibition [GQUAD]
Conditions: for IC50: curve of first compound; for viability, T/C: stronger effect = lower value
Source text: DNA G-quadruplex Stabilizer Agents in Combinations in Complex Spheroids
A high-throughput screen of multi-cell type tumor spheroids was designed to identify active combinations of DNA G-quadruplex stabilizer agents and targeted small molecules. Complex spheroids include a stromal component modeled by human endothelial cells (HUVEC) and fibroblasts modeled by human mesenchymal stem cells (MSCs). The concentration ranges selected for each drug and investigational agent were based upon clinically achievable concentrations if the clinical Cmax of the agent was known.
Compounds. The drugs and investigational agents: pidnarulex (CX-5461; NSC782164), APTO-253 (NSC789042), BRACO-19 (NSC847499), peposertib (NSC802822), ceralasertib (NSC780249), elimusertib (NSC800525), camonsertib (NSC841442), AZD-1390 (NSC803789), olaparib (NSC753686), talazoparib (NSC767125), ART-558 (NSC835418), sotorasib (NSC818433), MRTX-1133 (NSC836407), SN-38 (NSC673596), topotecan (NSC609699), etoposide (NSC141540), doxorubicin (NSC123127), gemcitabine (NSC613327), 5-fluorouracil (NSC19893), paclitaxel (NSC125973), vemurafenib (NSC761431), panobinostat (NSC761190), R-306465 (JNJ-16241199; NSC773264), adavosertib (NSC754352), TP-3654 (NSC805149), carboplatin (NSC241240), KSQ-4279 (NSC840948), and staurosporine (NSC755774) were obtained from the National Cancer Institute (NCI) Developmental Therapeutics Program Chemical Repository (34). The FDA-approved anticancer drug set is available from the NCI Developmental Therapeutics Program. […] The stock solutions were prepared in dimethyl sulfoxide (DMSO, Sigma-Aldrich, St. Louis, MO, cat. D2650) at 800-fold the tested concentration and stored at -70 degrees C prior to their use. All drugs and investigational agents were tested over a range starting from a high concentration at or near the clinical Cmax and decreasing in half-log increments. If the clinical Cmax for an agent had not been determined, the highest concentration tested was 10 microM.
2.3 Cell Culture. All cells were maintained in an incubator at 37 degrees C and 5% CO2 with 95% humidity. The PDC lines were cultured according to standard operating procedures established by the NCI PDMR. All PDCs were thawed and cultured in Matrigel-coated flasks prepared with a working solution of 1X Ham's F-12 nutrient mix, without supplementation (Invitrogen, cat. 11765054), 100 U/mL penicillin-streptomycin (Invitrogen, cat. 15140122), and 2.5% Matrigel (Corning Inc., cat. 354248) for the first three passages. The 857933-349-R-J2-PDC line was cultured in 6C/Colon 1B media, which includes advanced DMEM/F-12 (Thermo Fisher Scientific, cat. 12634028), 10 mM HEPES (Thermo Fisher Scientific, cat. 15630080), 1X GlutaMAX supplement (Thermo Fisher Scientific, cat. 35050061), 0.1 mg/mL primocin (InvivoGen, cat. ant-pm-2), 10% defined fetal bovine serum, heat inactivated (HyClone Laboratories Inc., cat. SH30070.03HI), 50% L-WRN conditioned media (ATCC, cat. CRL-3276), 1.25 mM N-Acetyl-L-cysteine (Sigma-Aldrich, cat. A9165), 10 mM nicotinamide (Sigma-Aldrich, cat. N0636), 1X B-27 supplement (Thermo Fisher Scientific, cat. 17504044), 1X N-2 supplement (Thermo Fisher Scientific, cat. 17502048), 10 microM Y-27632 dihydrochloride (Tocris Bioscience, cat. 1254), and 50 ng/mL human EGF recombinant protein (Thermo Fisher Scientific, cat. PHG0311). The 485176-168-R4-J1-PDC line was cultured in Panc media, which includes all 6C/Colon 1B media components plus 100 ng/mL human FGF-10 (Thermo Fisher Scientific, cat. 100-26), 500 nM SB-431542 (Selleckchem, cat. S1067), and gastrin (Tocris, cat. 3006).
[…]
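Note: spheroids exposed to drugs for seven days.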
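Throughout, for viability, T/C: 100% = DMSO vehicle control viability.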

CC(C)n1c(=O)n(C)c2cnc3cc(F)c(-c4ccc(OCCCN5CCCCC5)nc4)cc3c21 + CN(C)c1ccc(Nc2c3ccc(NC(=O)CCN4CCCC4)cc3nc3cc(NC(=O)CCN4CCCC4)ccc23)cc1
IC50 (second compound 0.0316 µM): > 10 µM
IC50 (second compound 0.1 µM): > 10 µM
IC50 (second compound 0.316 µM): 8.48 µM
IC50 (second compound 1 µM): > 10 µM
IC50 (second compound 3.16 µM): > 10 µM
IC50 (second compound 10 µM): < 0.0316 µM
viability, T/C (second compound 0.0316 µM, first compound 0.0316 µM): 95.3%
viability, T/C (second compound 0.0316 µM, first compound 0.1 µM): 103%
viability, T/C (second compound 0.0316 µM, first compound 0.316 µM): 99.6%
viability, T/C (second compound 0.0316 µM, first compound 1 µM): 92.9%
viability, T/C (second compound 0.0316 µM, first compound 3.16 µM): 69.2%
viability, T/C (second compound 0.0316 µM, first compound 10 µM): 53.1%
viability, T/C (second compound 0.1 µM, first compound 0.0316 µM): 91.4%
viability, T/C (second compound 0.1 µM, first compound 0.1 µM): 99.2%
viability, T/C (second compound 0.1 µM, first compound 0.316 µM): 100%
viability, T/C (second compound 0.1 µM, first compound 1 µM): 89.2%
viability, T/C (second compound 0.1 µM, first compound 3.16 µM): 60.1%
viability, T/C (second compound 0.1 µM, first compound 10 µM): 55.5%
viability, T/C (second compound 0.316 µM, first compound 0.0316 µM): 86.7%
viability, T/C (second compound 0.316 µM, first compound 0.1 µM): 84.3%
viability, T/C (second compound 0.316 µM, first compound 0.316 µM): 75.7%
viability, T/C (second compound 0.316 µM, first compound 1 µM): 86.1%
viability, T/C (second compound 0.316 µM, first compound 3.16 µM): 68.7%
viability, T/C (second compound 0.316 µM, first compound 10 µM): 46.9%
viability, T/C (second compound 1 µM, first compound 0.0316 µM): 61.7%
viability, T/C (second compound 1 µM, first compound 0.1 µM): 57.4%
viability, T/C (second compound 1 µM, first compound 0.316 µM): 62.1%
viability, T/C (second compound 1 µM, first compound 1 µM): 72.7%
viability, T/C (second compound 1 µM, first compound 3.16 µM): 72.7%
viability, T/C (second compound 1 µM, first compound 10 µM): 64.8%
viability, T/C (second compound 3.16 µM, first compound 0.0316 µM): 55.9%
viability, T/C (second compound 3.16 µM, first compound 0.1 µM): 53.6%
viability, T/C (second compound 3.16 µM, first compound 0.316 µM): 82.4%
viability, T/C (second compound 3.16 µM, first compound 1 µM): 90.1%
viability, T/C (second compound 3.16 µM, first compound 3.16 µM): 81.3%
viability, T/C (second compound 3.16 µM, first compound 10 µM): 36.6%
viability, T/C (second compound 10 µM, first compound 0.0316 µM): 46.4%
viability, T/C (second compound 10 µM, first compound 0.1 µM): 54%
viability, T/C (second compound 10 µM, first compound 0.316 µM): 63.4%
viability, T/C (second compound 10 µM, first compound 1 µM): 83.1%
viability, T/C (second compound 10 µM, first compound 3.16 µM): 107%
viability, T/C (second compound 10 µM, first compound 10 µM): 26.4%

From PubChem BioAssay AID2060496 (Molecular Pharmacology Branch, DTP, NCI, 2025)
